Consider two compounds from US12281334B2, “Multi donor stem cell compositions and methods of making same” (Children's Hospital Medical Center, priority 2017, dated 2025).

The test system of data set [1] is pooled iPSCs (two fluorescently labeled donors and one puromycin resistant donor). As to the kind of experiment: Donor ratio change by drug selection monitored by eDNA (drop out assay). Type of data set: cell-based, human. The following applies: puromycin containing media; fluorescence imaging and eDNA donor identification PCR. The source says: FIG. 22. Donor ratio change monitored by gDNA in the culture medium. To confirm the eDNA donor identification, Applicant monitored cell ratio change by drug selection. Two types of fluorescently labeled cells and puromycin resistant cells were used as a positive control.
(§1) In one aspect, a “Drop out assay” is disclosed. In this aspect, genomic DNA in environments (environmental DNA, or “eDNA”), a form of cell-free DNA (cfDNA), exists in the environment to determine biodiversity such as sea and soil. Detection of circulating tumor derived cfDNA is an evolving component of cancer precision medicine. […] Remarkably, when applied into pooled stem cell culture, quantitative detection of respective donor correlates with the cell ratio in culture. Therefore, Applicant concluded eDNA-based noninvasive donor identification method is effective decoding strategy for pooled stem cell culture by eDNA in culture supernatant. PCR of eDNA in culture supernatant can be carried out using donor-specific SNP primers. Each SNP primer may be standardized, and the donor ratio of the iPSC pool can be estimated using eDNA contained in the culture supernatant (see FIG. 19). As a result, the cell ratio may be successfully determined by PCR of eDNA in the medium (see FIG. 20). […] In order to confirm the sensitivity of eDNA donor identification, Applicant monitored cell ratio change by drug selection. […]

For data set [2], the system named is fat-treated hepatocytes prepared from 11 iPSCs pool. As to the kind of experiment: Drop-out assay using induced hepatocytes treated with oleic acid and troglitazone. Type of data set: cell-based, human. The following applies: eDNA based drop-out assay; oleic acid treated hepatocyte pool from eleven donors. How it is done:
FIG. 23. Drop-out assay using induced hepatocytes treated with oleic acid and troglitazone. Drug screening assays for fat accumulation and drug treatment were performed using hepatocytes prepared from iPSC pools.
as §1

The structures appear in SMILES notation. “Also recorded” adds a separate entry of the source.

For `COc1ccc(C[C@H](N)C(=O)N[C@H]2[C@@H](O)[C@H](n3cnc4c(N(C)C)ncnc43)O[C@@H]2CO)cc1` [puromycin], the “fate of non-resistant iPSCs under drug selection” value in data set [1] is “non-resistant iPSCs were disappeared on the second day of treatment; also recorded: two other donors died due to puromycin toxicity”.
Consider `Cc1c(C)c2c(c(C)c1O)CCC(C)(COc1ccc(CC3SC(=O)NC3=O)cc1)O2` (centres unmarked) [troglitazone], for which the “sensitivity to drug induced hepatotoxicity, high fat accumulation risk donor cells vs healthy donor derived cells” value in data set [2] is given as “significantly more sensitive”.
